Measured values reported in patent US11261152B2, “Inhibitors of the N-terminal domain of the androgen receptor” (The Regents of the University of California, priority 2017, dated 2022).
“Also recorded” adds a separate entry of the source. Counter-ions that a name gives are not always drawn.

Legend:
[1] = test system: glucocorticoid response element (GRE) / glucocorticoid receptor; experiment: GRE reporter assay; type: cell-based
Procedure: FIG. 11B. Effects of JN series compounds in reporter assays for glucocorticoid response element. Experiments were performed in triplicate and results are means+/−s.d.

[2] = target: T1, AR transactivation domain (TAD) (Homo sapiens, UniProt P10275); experiment: AR-TAD fused to GAL4 DNA-binding domain reporter assay; type: cell-based
T1 construct: expressed in transfected cells
T1 sequence (P10275 1-559 limits assumed): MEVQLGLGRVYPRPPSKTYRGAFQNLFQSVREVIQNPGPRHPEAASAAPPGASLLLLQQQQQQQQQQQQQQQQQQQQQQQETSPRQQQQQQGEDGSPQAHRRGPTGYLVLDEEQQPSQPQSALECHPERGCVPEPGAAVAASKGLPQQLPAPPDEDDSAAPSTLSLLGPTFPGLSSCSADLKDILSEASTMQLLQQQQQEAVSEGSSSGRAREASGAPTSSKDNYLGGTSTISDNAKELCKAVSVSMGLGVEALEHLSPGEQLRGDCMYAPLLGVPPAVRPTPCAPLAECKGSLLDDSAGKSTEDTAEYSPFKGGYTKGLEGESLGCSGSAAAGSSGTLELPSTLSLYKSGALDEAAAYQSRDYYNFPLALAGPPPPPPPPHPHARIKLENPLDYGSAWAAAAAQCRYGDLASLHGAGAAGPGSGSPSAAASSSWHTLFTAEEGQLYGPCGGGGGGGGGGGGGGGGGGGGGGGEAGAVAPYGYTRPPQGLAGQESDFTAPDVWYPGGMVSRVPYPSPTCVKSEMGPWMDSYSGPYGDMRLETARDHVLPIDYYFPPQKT
Text: (§1) The inhibitory activity of JN018 was further evaluated in experiments in which the AR transactivation domain (TAD) or the c-Jun or CREB TAD was fused to the heterologous GAL4 DNA-binding domain and thereby drive reporter gene expression governed by the GAL4 response element (FIG. 1).

CREB TAD = experiment: CREB-TAD fused to GAL4 DNA-binding domain reporter assay; type: cell-based; details: Table 3 grade HIGH/MED/LOW, grades not defined
Text: as §1

[3] = test system: LNCaP-AR castration resistant cell line; experiment: LNCaP-AR castration resistant xenograft in castrated nude mice; type: in vivo
Procedure: FIG. 12A. In vivo effects of JN series compounds.
FIG. 12B. In vivo effects of JN series compounds.
Selected compounds were tested in a mouse xenograft model. In this model, the LNCaP-AR castration resistant cell line was grown subcutaneously in the flanks of castrated nude mice. When tumors reached 150-200 mm^3, mice were administered selected JN series compounds, vehicle or positive control by oral gavage once per day for five days per week (Mon-Fri). […].

[4] = test system: androgen response element (ARE); experiment: ARE reporter assay (tandem copies of the androgen response element); type: cell-based
Procedure: FIG. 11A. Effects of JN series compounds in reporter assays for androgen response element. Experiments were performed in triplicate and results are means+/−s.d.

[5] = test system: AR transcriptional activity (MMTV reporter); experiment: MMTV reporter assay; type: cell-based
[6] = test system: AP1 mediated reporter activity; experiment: AP1 reporter assay; type: cell-based
[7] = Table 3 grade HIGH/MED/LOW, grades not defined

C=C(CN(C)Cc1ccccc1)C(=O)/C(=C/c1ccc(Cl)cc1)c1ccccc1 [JN018, (E)-4-((Benzyl(methyl)amino)methyl)-1-(4-chlorophenyl)-2-phenylpenta-1,4-dien-3-one hydrochloride]
GRE [1, 7]: LOW
GR / GRE mediated reporter (transcriptional) activity ([1]; result in words, hydrochloride): does not inhibit; also recorded: does not affect
AR-TAD [2, 7]: HIGH
inhibition of the AR-GAL4-DBD fusion protein ([2]; result in words, versus c-Jun or CREB TAD fusions): selectively inhibits
CREB-TAD (CREB TAD): LOW
tumor growth of LNCaP-AR model in castrated nude mice ([3]; oral gavage once per day, five days per week (Mon-Fri), hydrochloride): inhibits growth
signs of toxicity in mice ([3]; xenograft study, oral gavage Mon-Fri): some mice exhibited signs of toxicity
ARE [4, 7]: HIGH
reporter activity driven by the ARE ([4]; result in words): inhibits reporter activity
MMTV [5, 7]: HIGH
reporter activity driven by the MMTV promoter ([5]; result in words): inhibits reporter activity
AP1 [6, 7]: LOW
AP1 mediated reporter activity ([6]; result in words): does not affect
